In brackets after ≈: the same amount, converted by molar mass.
Experiments:
Jurkat = test: Cytotoxicity against human Jurkat cells after 72 hrs by MTS method; format: functional
PC-3 = test: Cytotoxicity against human PC-3 cells after 72 hrs by MTS method; format: functional; conditions: PC-3, 72 h

SMILES | GI50 (Jurkat) | GI50 (PC-3)
CCCCCCCCCCCC[C@@H](O)[C@H]1CC[C@H]([C@H](O)CCCCC[C@H](O)CCCCCCC2=C[C@H](C)OC2=O)O1 | 5 µg/mL (≈ 8.61 µM) | 15 µg/mL (≈ 25.8 µM)
CCCCCCCCCCCC[C@@H](O)[C@H]1CC[C@H]([C@H](O)CCCCC[C@@H](O)CCCCCCC2=C[C@H](C)OC2=O)O1 | 5 µg/mL (≈ 8.61 µM) | 10 µg/mL (≈ 17.2 µM)

— ChEMBL document CHEMBL1144195, “Synthesis and antitumor activity of C-9 epimers of the tetrahydrofuran containing acetogenin 4-deoxyannoreticuin” (2008)
